The values below come from article PMC8692498, “Synthesis and multifaceted pharmacological activity of novel quinazoline NHE-1 inhibitors” (Scientific Reports, 2021).

The CC50 is the concentration that lowers cell viability or growth by half.

For one series, the system named is ICR mice. Briefly: Tail suspension test (antidepressant activity). In kind it is in vivo. The note with it: intragastrically 30 min before test, dose equimolar to 2.6 mg/kg amiloride. As for the experimental part:
The experiment was carried out on 36 male ICR mice weighing 22-25 g, divided into groups of 6 animals each under room lighting (300 lux). […] In experiments, test substances were administered intragastrically 30 min before the start of the test. Experimental groups received test compounds in an equimolar dose to the comparison drug amiloride. Animals of the remaining groups were treated with 2.6 mg/kg amiloride, 10 mg/kg amitriptyline, or 8 mg/kg imipramine. Distilled water was administered to the control group. The time of immobilization of the animals was recorded.

Series [1] is described as follows: Cytotoxicity study (LDH activity in the medium) in peritoneal macrophages. In kind it is cell-based. The note with it: male, C57BL/6J, mouse, primary peritoneal macrophages; murine peritoneal macrophages, LDH. Here is the method:
(§1) Peritoneal macrophages (PM) were isolated from the peritoneal exudate of 30 male C57bl/6j mice. To accumulate PM, 1 ml of 3% peptone solution was injected intraperitoneally. After 3 days the mice were euthanized by cervical dislocation. Cells of peritoneal exudate were obtained by aseptically washing the abdominal cavity with 5 ml of sterile Hanks’s solution (+ 4-6 °C) without calcium and magnesium ions. The total number and viability of cells were assessed in a Goryaev counting chamber (Russia) with a 0.4% trypan blue staining (Sigma-Aldrich, USA). The cell concentration was adjusted to 1.0×10^6 cells/ml in DMEM (Gibco) supplemented with 2 mM L-glutamine (Gibco), 10% heat-inactivated fetal bovine serum (BioClot, Germany), 100 U/ml penicillin and […] streptomycin (Gibco) and plated 200 μl/well in 96-well transparent plates (SPL Life Sciences Co., Ltd., Korea). It was left for 2 h at 37°C in a humidified atmosphere with 5% CO2, after which the wells were washed to remove non-adherent cells. After 24 hours of incubation, 20 μl of the supernatant was removed and 20 μl of solutions of test compounds were added 30 min before E. coli O127:B8 LPS (100 ng/ml final concentration). Experiments were run in 3 independent replicates.
(§2) The activity of lactate dehydrogenase (LDH) in a cell culture medium served as a marker of membrane permeability and cell death. Aliquotes of supernatants were taken after 24 h of inoculation with test compounds, mixed with 250 μl of […] NADH solution in 54 mM phosphate buffered saline (pH 7.5). Then, 25 μl of a 6.48 mM pyruvate solution was added to the mixture. The optical density was followed at a wavelength of 340 nm for 20 min. Conversion of optical density into cell viability was carried out according to a standard curve (DMSO-treated cells as 100% and 0.01% Triton X-100-treated cells as 0% viable cells).

In series [2] the test system is primary peritoneal macrophages of C57BL/6J mice. The description is as above. The note with it: 100 μM, peritoneal macrophages. In kind it is cell-based. As for the experimental part:
as §1, §2

“Also recorded” adds a separate entry of the source.

As for `Cn1c(=O)n(Cc2nnc(N)[nH]2)c(=O)c2ccccc21` [Compound 3e, 3-[(5-Amino-4H-1,2,4-triazol-3-yl)methyl]-1-methylquinazoline-2,4(1H,3H)-dione], the antidepressant activity result with ICR mice is on record as “antidepressant activity similar to amiloride; also recorded: antidepressant activity comparable with amiloride”. This molecule also registered a CC50 at 24 h in series [1] of 138 µM. The “effect on cell viability” value in series [2] is “absence of a statistically significant effect on cell viability”.
